In patent US11285219B2, “Peptide-oligourea hybrid compounds” (UREKA SARL, priority 2019, dated 2022):

How the values were obtained:
NEP 24.11 = NEP 24.11 (Homo sapiens, UniProt P08473); assay: in vitro; details: pH 8
Description: Enzymatic and mouse plasma degradation studies.
Enzymatic degradation (NEP 24.11). Stock solutions of the oligomers were prepared at a concentration of 400 μM in a solution of 50 mM HEPES buffer, 50 mM NaCl, 0.05% Tween-80, pH 8.0. Stock solution of NEP 24.11 was prepared at a concentration of 100 μg/mL in water. Stability of oligomers to NEP 24.11 was assessed by conducting protease reaction in a 96-well plates at 20° C. […] Each compound was also incubated in the absence of the enzyme (12 μL of HEPES buffer and 38 μL of oligomer). At the indicated time (1, 2, 4, 6 and 22 hours) an aliquot of 10 μL was removed from each experimental reaction and pipetting into 100 μL of 1% TFA solution to quench the reaction, (t=0 min was determined using the reaction without enzyme). A portion of the quenched reaction solution was analyzed by HPLC. The time course of peptide degradation was determined by integrating the area of each peak in a series of HPLC traces.

[1] = target: T1, mouse GLP-1 receptor endogenously expressed in βTC6 cells (Mus musculus, UniProt O35659); assay: cAMP production functional assay (HTRF), agonist activity at GLP-1R; format: cell-based
T1 construct: host or cells: βTC6 cells
T1 sequence (O35659 22-463): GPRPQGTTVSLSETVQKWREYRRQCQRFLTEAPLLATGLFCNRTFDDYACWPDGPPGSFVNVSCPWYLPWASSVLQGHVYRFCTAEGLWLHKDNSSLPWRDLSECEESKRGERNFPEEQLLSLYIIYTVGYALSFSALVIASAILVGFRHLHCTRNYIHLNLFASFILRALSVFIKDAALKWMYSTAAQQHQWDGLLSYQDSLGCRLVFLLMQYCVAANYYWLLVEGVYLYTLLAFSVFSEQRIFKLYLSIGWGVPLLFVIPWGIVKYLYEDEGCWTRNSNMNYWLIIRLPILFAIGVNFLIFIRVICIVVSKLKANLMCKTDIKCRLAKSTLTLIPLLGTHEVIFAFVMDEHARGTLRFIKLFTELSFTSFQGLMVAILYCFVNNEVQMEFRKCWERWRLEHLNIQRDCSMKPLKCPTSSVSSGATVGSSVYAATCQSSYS
Description: The agonistic activity of these hybrids were obtained by functional assays using cells expressing the […] and by measuring the receptor-mediated cAMP produced (see supporting information).
In vitro pharmacology (EC50). […] Following incubation, the cells were lysed and the fluorescence acceptor (D2-labeled cAMP) and fluorescence donor (anti-cAMP antibody labeled with europium cryptate) were added.

[2] = pH 7.4
Description: Mouse plasma stability. […] The oligomer was then diluted 1/50 with a solution of plasma/PBS pH 7.4 (1:1) to afford a final concentration of 5 μM and incubated at 37° C. (4 μL of the stock solution was diluted with 196 μL of plasma/PBS, pH 7.4, 1:1) Each compound was also incubated in the absence of plasma (196 μL of H2O/PBS, pH 7.4, 1:1)). At the indicated time (20 min and 60 min) an aliquot of 70 μL was removed from each experimental reaction and pipetting into 175 μL of acetonitrile at 0° C. to quench the reaction, (t=0 min was determined using the reaction without plasma). The samples were frozen before analysis. The frozen sample were defrost, stirred with a vortex 5 min and finally centrifuged 5 min at 16° C. The supernatant was analyzed by LC-MS. The time course of oligomer degradation was determined by integrating the area of the peak in the extracted ion chromatogram.

normal mice (C57BL/6J) [3] = assay: Intra peritoneal glucose tolerance test (IPGTT) in fasted normal mice; format: in vivo, mouse
Description: In a second study, an IPGTT was performed 30 min after i.v. injections of 1, 14 and the vehicle (FIGS. 5B1 and 5B2). […] A further IPGTT study was done with a glucose challenge after 2 h of the dosing to investigate the prolong activity of hybrids 14, 22, and 23 (FIGS. 5C1 and 5C2).
IPGTT experiments in mice. After the acclimation period (at least 5 days), mice (male C57BL/6J mice (Charles River laboratories) (6 weeks old, 20-24 g)) were randomized into 6 groups (n=6/group) according to their body weight. The mice were fasted for 6 h prior being acutely treated via i.v. route (5 μg/mouse i.v. (200 μg/kg, 50 nmol/kg)) formulated at 20 μg/mL in PBS 1×. The IPGTTs were performed (glucose 2 g/kg i.p.) 5 min, 30 min, 2 h or 4 h after dosing and blood glucose was measured 30, 60, 90 and 120 min after the glucose challenge.

normal mice (C57BL/6J) [4] = assay: Blood glucose experiment in healthy mice; format: in vivo, mouse; set-up: key to In vivo activity (indicator): + = active; +++: + + + = more active
Description: In the first study, we evaluated the effect of the analogues on the blood glucose concentration of normal mice (FIG. 4). The fed mice were treated with the analogues and their blood glucose concentration was monitored before and after dosing for 6 h. […] Indeed, a decrease of blood glucose concentration is observed after 30 min and the effect is preserved for 4 h after dosing.
Blood glucose experiment in healthy mice. After the acclimation period (at least 5 days), mice (male C57BL/6J mice (Charles River laboratories) (8 weeks old, 20-25 g)) were randomized into 10 groups (n=3/group) according to their body weight. They were acutely treated via i.v. route at 10 AM (5 μg/mouse). Blood glucose was measured before dosing and at 30 min, 1, 2, 4, 6 h after dosing in fed conditions.

NEP 24.11, sequence (P08473 whole entry): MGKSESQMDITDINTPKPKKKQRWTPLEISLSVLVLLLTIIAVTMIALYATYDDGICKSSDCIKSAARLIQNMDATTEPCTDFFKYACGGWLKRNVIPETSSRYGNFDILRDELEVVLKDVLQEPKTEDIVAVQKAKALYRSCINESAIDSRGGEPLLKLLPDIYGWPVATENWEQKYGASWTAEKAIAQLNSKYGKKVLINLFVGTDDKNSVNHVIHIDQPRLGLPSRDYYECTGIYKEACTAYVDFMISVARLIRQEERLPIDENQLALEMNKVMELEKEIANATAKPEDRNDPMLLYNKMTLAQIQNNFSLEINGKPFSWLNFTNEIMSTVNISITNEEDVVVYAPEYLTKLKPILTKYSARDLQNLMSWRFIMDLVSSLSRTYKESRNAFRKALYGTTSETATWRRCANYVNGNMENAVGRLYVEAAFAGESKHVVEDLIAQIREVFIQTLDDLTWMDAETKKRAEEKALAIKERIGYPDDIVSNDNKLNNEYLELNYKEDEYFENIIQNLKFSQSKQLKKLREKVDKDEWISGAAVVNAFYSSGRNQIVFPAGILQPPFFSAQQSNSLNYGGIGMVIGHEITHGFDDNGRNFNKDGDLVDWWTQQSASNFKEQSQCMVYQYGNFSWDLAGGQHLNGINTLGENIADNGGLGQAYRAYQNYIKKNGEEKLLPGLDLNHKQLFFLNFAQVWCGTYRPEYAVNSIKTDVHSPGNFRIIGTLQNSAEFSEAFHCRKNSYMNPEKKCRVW

CC[C@H](C)[C@H](NC(=O)[C@H](Cc1ccccc1)NC(=O)[C@H](CCC(=O)O)NC(=O)[C@H](CCCCN)NC(=O)[C@H](C)NC(=O)[C@H](C)NC(=O)[C@H](CCC(N)=O)NC(=O)CNC(=O)[C@H](CCC(=O)O)NC(=O)[C@H](CC(C)C)NC(=O)[C@H](Cc1ccc(O)cc1)NC(=O)[C@H](CO)NC(=O)[C@H](CO)NC(=O)[C@@H](NC(=O)[C@H](CC(=O)O)NC(=O)[C@H](CO)NC(=O)[C@@H](NC(=O)[C@H](Cc1ccccc1)NC(=O)[C@@H](NC(=O)CNC(=O)[C@H](CCC(=O)O)NC(=O)CNC(=O)[C@@H](N)Cc1c[nH]cn1)[C@@H](C)O)[C@@H](C)O)C(C)C)C(=O)N[C@@H](C)C(=O)N[C@@H](Cc1c[nH]c2ccccc12)C(=O)N[C@@H](CC(C)C)C(=O)N[C@H](C(=O)N[C@@H](CCCCN)C(=O)NCC(=O)N[C@@H](CCCNC(=N)N)C(=O)NCC(N)=O)C(C)C [Compound 1, GLP-1-G^2, reference compound]
half-life (NEP 24.11): 3.6 h | Potency (%), percentage of potency (cAMP production) compared to GLP-1-G^2 ([1]; Table 2): 100% | times less potent than GLP-1 ([1]; cAMP production): 2.5 times | Potency (%), percentage of potency compare to GLP-1-G^2 ([1]; cAMP production, Table 1): 100% | EC50 ([1]; read-out: EC50 (nM), GLP-1R potency): 0.24 nM | Mouse Plasma t1/2 [2]: 0.267 h | activity in IPGTT 5 min after dosing, 60 min after the glucose challenge (normal mice (C57BL/6J) [3]; 65 min after dosing, compared to vehicle): no more significant effect | IPGTT 2 h after dosing (normal mice (C57BL/6J) [3]; fasted mice, 200 μg/kg i.v.): IPGTT curve similar to the vehicle | activity in IPGTT 30 min after dosing (normal mice (C57BL/6J) [3]; fasted mice, 200 μg/kg i.v.): inactive | activity in IPGTT 5 min after dosing (normal mice (C57BL/6J) [3]; fasted mice, 200 μg/kg i.v., glucose 2 g/kg i.p.): active | In vivo activity (indicator) (normal mice (C57BL/6J) [4]; blood glucose, mice, i.v.): + | effect on blood glucose concentration (normal mice (C57BL/6J) [4]; fed normal mice, 5 μg/mouse i.v., monitored 6 h): decreased of blood glucose concentration after 30 min
